Results as given in PMC5118987 (Antimicrobial Agents and Chemotherapy, 2016).
Like-named read-outs stand apart in the source and are kept apart here.

Columns and labels:
HIV-1 IIIb [1] = assay: Antiviral assay in MT-2 cells; type: cell-based
Method: (§1) For the antiviral assay utilizing MT-2 and MT-4 cells, 50 μl of a 2× test concentration of 5-fold serially diluted compound in culture medium with 10% FBS was added to each well of a 96-well plate (9 concentrations) in triplicate. MT-2 and MT-4 cells were infected with HIV-1 IIIb at a multiplicity of infection (MOI) of 0.01 for 3 h. Fifty microliters of infected cell suspension in culture medium with 10% FBS (∼1.5 × 10^4 cells) then was added to each well containing 50 μl of diluted compound. The plates were then incubated at 37°C for 5 days. After 5 days of incubation, 100 μl of CellTiter-Glo reagent (Promega Biosciences, Inc., Madison, WI) was added to each well containing MT-2 or MT-4 cells. Cell lysis was carried out by incubation at room temperature for 10 min and chemiluminescence was read. For compound cytotoxicity assessment, the protocol was identical except that uninfected cells were used and compounds were serially diluted 3-fold.

[2] = Cytotoxicity assay in MT-2 cells; type: cell-based; settings: human, uninfected MT-2 cells
Method: as §1

[3] = Cytotoxicity assay in MT-4 cells; type: cell-based; settings: human, uninfected MT-4 cells
Method: as §1

[4] = tested on: INSTI-resistant HIV-1 mutants (HXB2); assay: microbe, parasite or virus in culture; type: cell-based
[5] = tested on: inhibitor-selected HIV-1 IIIb passages; assay: Phenotypic profile of selected HIV-1 passages; type: cell-based; settings: Human immunodeficiency virus 1, IIIB
Influenza A/PC/1/73 = assay: microbe, parasite or virus in culture; type: cell-based; settings: NHBE
[6] = tested on: HRV (mixture of HRV1A, HRV14, HRV16); assay: microbe, parasite or virus in culture; type: cell-based; settings: Human rhinovirus sp., H1-HeLa
RSV strain A2 = assay: microbe, parasite or virus in culture; type: cell-based, respiratory syncytial virus; settings: human respiratory syncytial virus, HEp-2
[7] = tested on: NRTI-, NNRTI- and PI-Resistant HIV-1 Mutants; assay: Antiviral activity against NRTI-, NNRTI- and PI-resistant HIV-1 mutants; type: cell-based; settings: Human immunodeficiency virus 1; WT, Table S7
in vitro [8] = settings: human, 6 days
Source text: Freshly isolated human peripheral blood mononuclear cells (PBMCs) were obtained from healthy volunteers (supplied by AllCells, Inc., Alameda, CA). Blood donors were negative for HIV-1, hepatitis B, and hepatitis C viral infections. CD4^+ T lymphocytes were isolated by negative selection using a magnetically labeled antibody cocktail ([sequence] Technologies Inc., Vancouver, Canada) and cultured in RPMI cell culture media (Life Technologies, Grand Island, NY) supplemented with 10% FBS. CD4^+ T cells were activated for 48 h at 37°C by addition of 1 μg/ml phytohemagglutinin (PHA; Sigma, St. Louis, MO) and 5 ng/ml interleukin-2 (IL-2; Roche Diagnostics, Indianapolis, IN). […] Human PBMCs were used for cytotoxicity assays after culturing for 48 h in either complete RPMI medium alone (resting conditions) or RPMI containing 1 μg/ml PHA and 5 ng/ml IL-2 (activated conditions).

in vitro [9] = settings: human, CC50 in Primary Human Hepatocytes
HIV-1 IIIb [10] = assay: microbe, parasite or virus in culture; settings: Human immunodeficiency virus 1, IIIB, MT4
Method: Each compound series was prepared several times independently in quadruplicate to capture the variations in Hill slope associated with preparation of compound serial dilutions. The assay was performed in a 384-well format. MT-4 cells were infected in bulk at the same MOI as that described above, and the plates were developed with CellTiter-Glo reagent 5 days postinfection.

HBV Production = assay: microbe, parasite or virus in culture; settings: Hepatitis B virus
HIV-1 IIIb [11] = assay: HIV breakthrough selection in MT-2 cells; settings: MT-2, HIV-1 IIIb; FTC 4× EC95, EVG 5× EC95, BIC and DTG 2.5× and 5× EC95; up to day 32
HIV-1 BaL = settings: primary CD4+ T-cells, 35 days, drug at tissue culture equivalent clinical Cmin (FTC 160 × EC50)
HIV-2 CDC 310319 = assay: Antiviral assay against HIV-2 isolate in fresh human PBMCs (RT endpoint); settings: Human immunodeficiency virus 2, PBMC
HIV-1 clinical isolates = assay: Antiviral assay against HIV-1 clinical isolates in fresh human PBMCs (RT endpoint)

For `C[C@@H]1CCO[C@H]2Cn3cc(C(=O)NCc4ccc(F)cc4F)c(=O)c(O)c3C(=O)N12` [DTG, Dolutegravir], the EC50 (HIV-1 IIIb [1]; Human immunodeficiency virus 1, IIIB, MT2, Table S9 footnote b, read-out: EC50 previously determined (start of resistance selection at twice the EC50)) was 1.6 nM, the EC50 (HIV-1 IIIb [1]; Human immunodeficiency virus 1, MT2, 120 h, MT-2 cells, HIV-1 IIIb, 5 days, read-out: EC50) was 1.5 ± 0.2 nM and the CC50 at 5 days [2] was 5350 nM. It also gave a CC50 at 5 days [3] of 14700 nM, an EC50 ([4]; Human immunodeficiency virus 1, HXB2, IN mutant E92Q) of 1.8 ± 0.5 nM and an EC50 ([4]; Human immunodeficiency virus 1, HXB2, IN mutant E92Q/N155H) of 2.8 ± 0.6 nM. The EC50 ([4]; Human immunodeficiency virus 1, HXB2, IN mutant E138K/Q148K) was 13.7 ± 2.1 nM, the EC50 ([4]; Human immunodeficiency virus 1, HXB2, IN mutant G140S/Q148R) was 6.5 ± 1.2 nM and the EC50 ([4]; Human immunodeficiency virus 1, HXB2, IN mutant M50I (BIC/DTG selection)) was 2 ± 0.2 nM. It also gave an EC50 ([4]; Human immunodeficiency virus 1, HXB2, IN mutant M50I/R263K (BIC selection)) of 3.6 ± 0.5 nM, an EC50 ([4]; Human immunodeficiency virus 1, HXB2, IN mutant M50I/S119R/R263K (DTG selection)) of 6.2 ± 2.4 nM and an EC50 ([4]; Human immunodeficiency virus 1, HXB2, IN mutant N155H) of 2.4 ± 0.6 nM. It also gave an EC50 ([4]; Human immunodeficiency virus 1, HXB2, IN mutant N155H/Q148R) of 4.7 ± 1.5 nM, an EC50 ([4]; Human immunodeficiency virus 1, HXB2, IN mutant Q148R) of 1 ± 0.3 nM and an EC50 ([4]; Human immunodeficiency virus 1, HXB2, IN mutant R263K (BIC/DTG selection), Table 7) of 3.6 ± 0.4 nM. For the same compound, the EC50 ([4]; Human immunodeficiency virus 1, HXB2, IN mutant R263K, Table 6) was 2.5 ± 0.4 nM, the EC50 ([4]; Human immunodeficiency virus 1, HXB2, IN mutant S119R (DTG selection)) was 2.1 ± 0.7 nM and the EC50 ([4]; Human immunodeficiency virus 1, HXB2, IN mutant S119R/R263K (DTG selection)) was 3.6 ± 0.8 nM. For the same compound, the EC50 ([4]; Human immunodeficiency virus 1, HXB2, IN mutant S153Y (DTG selection)) was 4 ± 1.1 nM, the EC50 ([4]; Human immunodeficiency virus 1, HXB2, IN mutant S153Y/R263K (DTG selection)) was 6.4 ± 0.8 nM and the EC50 ([4]; Human immunodeficiency virus 1, HXB2, IN mutant Y143R) was 1.9 ± 0.5 nM. The EC50 ([4]; Human immunodeficiency virus 1, HXB2, WT (HXB2), Table 6, read-out: EC50) was 1.4 ± 0.3 nM, the “levels of resistance of double IN mutants” value ([4]; {}) was 2.1-10 fold and the EC50 ([5]; 480 h, selected virus EVG P2 (day 20, 7.2 nM)) was 5.4 nM. The EC50 ([5]; HIV-1-IIIb (unselected)) was 2.5 nM, the EC50 ([5]; selected virus BIC P3 (day 47, 6 nM)) was 3.6 nM and the EC50 ([5]; selected virus BIC P5 (day 71, 12 nM)) was 6.4 nM. The EC50 ([5]; selected virus BIC P6 (day 86, 24 nM)) was 8.3 nM, the EC50 ([5]; selected virus BIC P8 (day 156, 96 nM)) was 12 nM and the EC50 ([5]; selected virus BIC P9 (day 181, 192 nM)) was 19.1 nM. The EC50 ([5]; selected virus BIC P10 (day 234, 384 nM)) was 14.7 nM, the EC50 ([5]; selected virus DTG P3Lo (day 59, 6.4 nM)) was 3.2 nM and the EC50 ([5]; selected virus DTG P4 (day 87, 9.6 nM)) was 7.8 nM. For the same compound, the EC50 ([5]; selected virus DTG P5 (day 97, 14.4 nM)) was 10.3 nM, the EC50 ([5]; selected virus DTG P7 (day 139, 32.4 nM)) was 12.4 nM and the EC50 ([5]; selected virus DTG P9 (day 174, 72.9 nM)) was 15.6 nM. The EC50 ([5]; selected virus DTG P10 (day 202, 109.4 nM)) was 19.7 nM, the EC50 ([5]; selected virus EVG P4 (day 41, 28.8 nM)) was 7.1 nM and the EC50 ([5]; selected virus EVG P6 (day 56, 115 nM)) was 7.1 nM. It also gave an EC50 ([5]; selected virus EVG P7 (day 67, 230 nM)) of 8.1 nM, an EC50 ([5]; selected virus EVG P9 (day 94, 922 nM)) of 6.6 nM and an EC50 ([5]; selected virus EVG P10 (day 119, 1843 nM)) of 3.5 nM. The EC50 (Influenza A/PC/1/73) was 12800 nM, the EC50 [6] was > 50000 nM and the EC50 (RSV strain A2) was > 50000 nM. It also gave an EC50 [7] of 1.6 ± 0.5 nM, a CC50 (in vitro [8]; CC50, Activated PBMCs (IL-2/PHA 2 days)) of 23900 nM and a CC50 (in vitro [8]; CC50, Resting PBMCs) of 30600 nM. The CC50 (in vitro [9]; Donor 1) was > 100000 nM, the CC50 (in vitro [9]; Donor 2) was > 100000 nM and the EC50 (HIV-1 IIIb [10]) was 1.7 ± 0.2 nM. For the same compound, the EC50 (HBV Production) was > 50000 nM, the “day postinfection of HIV-1 breakthrough” value (HIV-1 IIIb [11]) was “no virus breakthrough was observed” and the “Frequency of Viral Breakthrough with RAMs” value (HIV-1 BaL) was 0%. The “p24+ Wells” value (HIV-1 BaL) was 0/24, the EC50 (HIV-2 CDC 310319) was 2.5 ± 0.5 nM and the EC50 (HIV-1 clinical isolates; Human immunodeficiency virus 1, BAL, PBMC, HIV-1 subtype B isolate BaL, human PBMCs) was 0.32 ± 0.11 nM. It also gave an EC50 (HIV-1 clinical isolates; Human immunodeficiency virus 1, PBMC, HIV-1 subtype A isolate 92RW016, human PBMCs) of 0.34 ± 0.09 nM, an EC50 (HIV-1 clinical isolates; Human immunodeficiency virus 1, PBMC, HIV-1 subtype A isolate 92UG037, human PBMCs) of 0.66 ± 0.05 nM and an EC50 (HIV-1 clinical isolates; Human immunodeficiency virus 1, PBMC, HIV-1 subtype B isolate 89BZ_167, human PBMCs) of 1.4 ± 0.4 nM. For the same compound, the EC50 (HIV-1 clinical isolates; Human immunodeficiency virus 1, PBMC, HIV-1 subtype B isolate 91US001, human PBMCs) was 0.8 ± 0.48 nM, the EC50 (HIV-1 clinical isolates; Human immunodeficiency virus 1, PBMC, HIV-1 subtype B isolate 91US004, human PBMCs) was 1 ± 0.4 nM and the EC50 (HIV-1 clinical isolates; Human immunodeficiency virus 1, PBMC, HIV-1 subtype C isolate 93IN905, human PBMCs) was 0.17 ± 0.03 nM. The EC50 (HIV-1 clinical isolates; Human immunodeficiency virus 1, PBMC, HIV-1 subtype C isolate 98US_MSC5016, human PBMCs) was 0.75 ± 0.09 nM, the EC50 (HIV-1 clinical isolates; Human immunodeficiency virus 1, PBMC, HIV-1 subtype D isolate 98UG_57128, human PBMCs) was 0.32 ± 0.48 nM and the EC50 (HIV-1 clinical isolates; Human immunodeficiency virus 1, PBMC, HIV-1 subtype E isolate 96TH_M02138, human PBMCs) was 0.11 ± 0.01 nM. The EC50 (HIV-1 clinical isolates; Human immunodeficiency virus 1, PBMC, HIV-1 subtype E isolate 96TH_NI1046, human PBMCs) was 0.25 ± 0.08 nM and the EC50 (HIV-1 clinical isolates; Human immunodeficiency virus 1, PBMC, HIV-1 subtype F isolate 93BR020, human PBMCs) was 0.4 ± 0.19 nM.
